Each compound was assayed against T1, Avi-tagged FL MALT-1 (Homo sapiens, UniProt Q9UDY8) (assay: MALT-1 Fluorogenic Peptide Cleavage Assay (MALT1 inhibition assay)). Conditions: Ac-LRSR-AMC peptide substrate; 30 min pre-incubation, 90 min reaction at room temperature; fluorescence.
T1 construct: Avi-tagged FL MALT-1 (Pharmaron, stored at −70° C.); Avi-tag; purchased Pharmaron
T1 sequence (Q9UDY8 1-824): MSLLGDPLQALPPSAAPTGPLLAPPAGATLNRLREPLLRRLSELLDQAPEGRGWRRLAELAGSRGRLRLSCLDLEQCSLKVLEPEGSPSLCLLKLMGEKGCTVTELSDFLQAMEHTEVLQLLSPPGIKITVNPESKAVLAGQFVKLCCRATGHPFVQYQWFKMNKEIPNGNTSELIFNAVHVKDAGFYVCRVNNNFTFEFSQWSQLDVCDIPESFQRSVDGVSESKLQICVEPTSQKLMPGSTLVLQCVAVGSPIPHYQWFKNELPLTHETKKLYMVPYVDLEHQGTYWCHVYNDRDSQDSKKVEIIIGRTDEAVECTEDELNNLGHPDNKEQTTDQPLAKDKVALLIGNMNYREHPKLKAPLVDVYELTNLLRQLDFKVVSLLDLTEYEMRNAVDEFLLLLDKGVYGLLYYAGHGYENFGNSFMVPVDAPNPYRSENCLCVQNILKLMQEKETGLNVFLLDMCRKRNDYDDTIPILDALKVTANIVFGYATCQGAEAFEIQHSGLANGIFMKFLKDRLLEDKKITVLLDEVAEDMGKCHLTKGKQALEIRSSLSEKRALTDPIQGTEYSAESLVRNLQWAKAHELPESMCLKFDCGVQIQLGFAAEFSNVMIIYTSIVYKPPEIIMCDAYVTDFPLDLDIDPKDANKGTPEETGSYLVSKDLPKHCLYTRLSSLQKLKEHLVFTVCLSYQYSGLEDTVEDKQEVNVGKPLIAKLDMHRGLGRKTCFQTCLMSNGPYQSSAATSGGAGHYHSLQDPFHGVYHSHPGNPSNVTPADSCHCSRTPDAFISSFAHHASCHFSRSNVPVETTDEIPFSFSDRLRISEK
Assay type: biochemical
Procedure: Inhibition of MALT1 activity by a small molecule was evaluated using MALT-1 Fluorogenic Peptide Cleavage Assay. The assay utilizes a quenched AMC-labelled peptide that contains the MALT-1 recognition sequence and cleavage site (LRSR). MALT-1 mediated cleavage of the peptide relieves the quenching and leads to an increase in fluorescence at excitation (342 nm) and emission (441 nm).
The following reagents were obtained commercially and used to prepare standard reagent formulations as further described below: N-2-hydroxyethylpiperazine-N-2-ethane sulfonic acid (HEPES) (1 M, pH 7.5, stored at 4° C.), sodium citrate (stored at RT), tris(2-carboxyethyl)phosphine hydrochloride (T-CEP) (500 mM, stored at −20° C.), ethylenediaminetetraacetic acid (EDTA) (500 mM, stored at RT), dimethylsulfoxide (DMSO, stored at RT), 3-[(3-cholamidopropyl)dimethylammonio]-1-propane sulphate (CHAPS) (stored at RT), dimethylsulfoxide (DMSO), DMSO (Fisher Scientific, stored at RT), Avi-tagged FL MALT-1 (Pharmaron, stored at −70° C.), Ac-LRSR-AMC Peptide (SM Biochemicals, stored at −20° C.), and ultrapure water (MILLI-Q®).
The standard reagent formulations used in this assay were prepared and stored as follows. A 1.1 M solution of sodium citrate (161.3 g, 500 mL) was prepared and stored at room temperature. A 10% (w/v) CHAPS solution (2.0 g, 20 mL) was prepared and stored at 4° C. A 500 mM HEPES solution having pH of 6.89 was prepared from 200 mL of a 1 M HEPES solution having a pH of 7.5 using concentrated hydrochloric acid and brought to a final volume of 400 mL with MILLI-Q© H2O. The substrate, 10 mM Ac-LRSR-AMC Peptide, was prepared (10 mg, 1.370 mL DMSO) and stored at −20° C.
Compounds were plated to provide a 2% DMSO final concentration using a ProxiPlate-384 Plus F Black 384-shallow well microplate. The assay-ready plates were equilibrated to room temperature. A reaction buffer (30 mL total volume) was prepared by combining HEPES (pH 6.89, 25 mM, 1.5 mL), sodium citrate (660 mM, 18.0 mL), T-CEP (1 mM, 0.06 mL), EDTA (0.1 mM, 0.06 mL), CHAPS (0.05%, 0.15 mL), DMSO (2%, 0.6 mL), and MILLI-Q® H2O (10.23 mL; 9.63 mL when backfilled to 2% DMSO) followed by thorough mixing.
MALT-1 was thawed and kept on ice. Peptide substrate was thawed on the bench under ambient conditions. A MALT-1 enzyme working stock was prepared from Avi-tagged FL MALT-1 (40 nM in a prepared reagent volume of […]) and the reaction buffer (13.0 mL). MALT1 working stock (5 μL) was added to each well of the microplate. MALT-1 was pre-incubated with compounds for 30 minutes at room temperature.
Two substrate working stocks (Km and 10×Km) were prepared. The 1×Km substrate was prepared from Ac-LRSR-AMC Peptide (50 μM in a prepared reagent volume of […]) and the reaction buffer (6.965 mL). The 10×Km substrate was prepared from Ac-LRSR-AMC Peptide ([…] in a prepared reagent volume of 196.0 μL) and the reaction buffer (6.804 mL). The reaction was initiated by the addition of substrate working stock (5 μL, 50 μM) to Km plates and the addition of substrate working stock (5 μL 280 μM) to 10×Km plates. The plates were covered and incubated on the bench at room temperature for 90 minutes.
Fluorescence intensity was determined using a CLARIOstar microplate reader (BMG LABTECH) using the optimised AMC mode. Before taking readings, a 70% gain was applied on the neutral control well. Compound data were normalised to % Inhibition and used to plot sigmoidal concentration response curves to yield various parameters including IC50.
In the case of `N#Cc1cc(NC(=O)c2snc(-c3ccccc3)c2C2CC2)cnc1N1CCOCC1` [I-53, N-(5-CYANO-6-MORPHOLINOPYRIDIN-3-YL)-4-CYCLOPROPYL-3-PHENYLISOTHIAZOLE-5-CARBOXAMIDE], the IC50 is reported as ≤ 400 nM.
In the case of `CN(C)c1ncc(NC(=O)c2snc(-c3ccccc3)c2C2CC2)cc1C#N` [I-29, N-(5-CYANO-6-(DIMETHYLAMINO)PYRIDIN-3-YL)-4-CYCLOPROPYL-3-PHENYLISOTHIAZOLE-5-CARBOXAMIDE], the IC50 is reported as ≤ 400 nM.
For `CN1Cc2cc(NC(=O)c3snc(-c4ccccc4)c3C3CC3)ccc2C1=O` [I-62, 4-CYCLOPROPYL-N-(2-METHYL-1-OXOISOINDOLIN-5-YL)-3-PHENYLISOTHIAZOLE-5-CARBOXAMIDE], the IC50 was > 2500 nM.
In the case of `O=C(Nc1cncc(C(F)(F)F)c1)c1snc(-c2cccc3ncccc23)c1C1CC1` [I-119], the IC50 is reported as ≤ 400 nM.
Compound `Cn1ncc2cc(-c3nsc(C(=O)Nc4ccnc(C(F)(F)F)c4)c3C3CC3)ccc21` [I-168, 4-cyclopropyl-3-(1-methyl-1H-indazol-5-yl)-N-(2-(trifluoromethyl)pyridin-4-yl)isothiazole-5-carboxamide] has an IC50 of 400 to 1000 nM.
Compound `CC(C)c1nsc(C(=O)Nc2ccnc(C(F)(F)F)c2)c1C1CC1` [I-124] has an IC50 of 1000 to 2500 nM.
With `O=C(Nc1cnc(C(=O)N2CC(O)C2)c(Cl)c1)c1snc(-c2cccn3nccc23)c1C1CC1` [I-212, N-(5-chloro-6-(3-hydroxyazetidine-1-carbonyl)pyridin-3-yl)-4-cyclopropyl-3-(pyrazolo[1,5-a]pyridin-4-yl)isothiazole-5-carboxamide] the IC50 was ≤ 400 nM.
With `CC(C)c1nsc(C(=O)Nc2cnc(-n3nccn3)c(C#N)c2)c1C(F)(F)F` [I-38, N-(5-CYANO-6-(2H-1,2,3-TRIAZOL-2-YL) PYRIDIN-3-YL)-3-ISOPROPYL-4-(TRIFLUOROMETHYL)ISOTHIAZOLE-5-CARBOXAMIDE] the IC50 was ≤ 400 nM.
For `O=C(Nc1ccnc(C(F)(F)F)c1)c1snc(-c2cccc3scnc23)c1C1CC1` [I-159, 3-(1,3-benzothiazol-4-yl)-4-cyclopropyl-N-[2-(trifluoromethyl)pyridin-4-yl]-1,2-thiazole-5-carboxamide], the IC50 was ≤ 400 nM.
For `Cc1cc(NC(=O)c2snc(-c3cccc4c(=O)[nH]ccc34)c2C2CC2)ccn1` [I-200, 4-cyclopropyl-N-(2-methylpyridin-4-yl)-3-(1-oxo-1,2-dihydroisoquinolin-5-yl)isothiazole-5-carboxamide], the IC50 was ≤ 400 nM.
In the case of `CC(=O)N(C)c1ncc(NC(=O)c2snc(-c3ccccc3)c2C2CC2)cc1C#N` [I-51, N-(5-CYANO-6-(N-METHYLACETAMIDO) PYRIDIN-3-YL)-4-CYCLOPROPYL-3-PHENYLISOTHIAZOLE-5-CARBOXAMIDE], the IC50 is reported as ≤ 400 nM.
In the case of `Cc1cc(NC(=O)c2snc([C@H]3CCOC3)c2C2CC2)ccn1` [I-202, 4-cyclopropyl-N-(2-methylpyridin-4-yl)-3-[(3R)-oxolan-3-yl]-1,2-thiazole-5-carboxamide], the IC50 is reported as > 2500 nM.
With `COc1cncc(NC(=O)c2snc(-c3ccccc3)c2C2CC2)c1` [I-44, 4-CYCLOPROPYL-N-(5-METHOXYPYRIDIN-3-YL)-3-PHENYLISOTHIAZOLE-5-CARBOXAMIDE] the IC50 was > 2500 nM.
With `O=C(Nc1cnc(C(=O)N2CC(O)C2)c(Cl)c1)c1snc(-c2cccc3ncsc23)c1C1CC1` [I-117] the IC50 was ≤ 400 nM.
In the case of `O=C(Nc1ccnc(C(F)(F)F)c1)c1snc(-c2ccc3cn[nH]c3c2)c1C1CC1` [I-169, 4-cyclopropyl-3-(1H-indazol-6-yl)-N-(2-(trifluoromethyl)pyridin-4-yl)isothiazole-5-carboxamide], the IC50 is reported as ≤ 400 nM.
For `Cc1cc(NC(=O)c2snc(-c3cccn4nccc34)c2C2CC2)ccn1` [I-211, 4-cyclopropyl-N-(2-methylpyridin-4-yl)-3-(pyrazolo[1,5-a]pyridine-4-yl)isothiazole-5-carboxamide], the IC50 was ≤ 400 nM.
With `O=C(Nc1cnc(-n2nccn2)c(Cl)c1)c1snc(-c2cnc3ccccn23)c1C(F)(F)F` [I-31] the IC50 was ≤ 400 nM.
For `Cc1ccccc1-c1nsc(C(=O)Nc2ccnc(C(F)(F)F)c2)c1C1CC1` [I-160, 4-cyclopropyl-3-(2-methylphenyl)-N-[2-(trifluoromethyl)pyridin-4-yl]-1,2-thiazole-5-carboxamide], the IC50 was ≤ 400 nM.
In the case of `O=C(Nc1cncc(Cl)c1)c1snc(-c2ccccc2)c1C1CC1` [I-42, N-(5-CHLOROPYRIDIN-3-YL)-4-CYCLOPROPYL-3-PHENYLISOTHIAZOLE-5-CARBOXAMIDE], the IC50 is reported as ≤ 400 nM.
For `N#Cc1cc(NC(=O)c2snc(-c3ccccc3)c2C2CC2)cnc1-n1nccn1` [I-9, N-(5-CYANO-6-(2H-1,2,3-TRIAZOL-2-YL) PYRIDIN-3-YL)-4-CYCLOPROPYL-3-PHENYLISOTHIAZOLE-5-CARBOXAMIDE], the IC50 was ≤ 400 nM.
With `Cn1ccc(-c2nsc(C(=O)Nc3cnc(-n4nccn4)c(C#N)c3)c2C(F)(F)F)cc1=O` [I-128, N-(5-cyano-6-(2H-1,2,3-triazol-2-yl)pyridin-3-yl)-3-(1-methyl-2-oxo-1,2-dihydropyridin-4-yl)-4-(trifluoromethyl)isothiazole-5-carboxamide] the IC50 was > 2500 nM.
`CN(C)c1nsc(C(=O)Nc2ccnc(C(F)(F)F)c2)c1C1CC1` [I-125] was tested, and the IC50 was > 2500 nM.
In the case of `Cn1nnc2c(-c3nsc(C(=O)Nc4cnc(-n5nccn5)c(C#N)c4)c3C3CC3)cccc21` [I-127], the IC50 is reported as ≤ 400 nM.
In the case of `O=C(Nc1ccnc(C(F)(F)F)c1)c1snc(-c2ccc(C(F)F)cc2)c1C1CC1` [I-154, 4-cyclopropyl-3-(4-(difluoromethyl)phenyl)-N-(2-(trifluoromethyl)pyridin-4-yl)isothiazole-5-carboxamide], the IC50 is reported as ≤ 400 nM.
With `O=C(Nc1ccc(C(=O)N2CC(O)C2)c(Cl)c1)c1snc(-c2ncccc2Cl)c1C1CC1` [I-49, N-(3-CHLORO-4-(3-HYDROXYAZETIDINE-1-CARBONYL)PHENYL)-3-(3-CHLOROPYRIDIN-2-YL)-4-CYCLOPROPYL-ISOTHIAZOLE-5-CARBOXAMIDE] the IC50 was 1000 to 2500 nM.
In the case of `O=C(Nc1ccc(C(=O)N2CCOCC2)c(Cl)c1)c1snc(-c2ccccc2)c1C1CC1` [I-22, N-(3-CHLORO-4-(MORPHOLINE-4-CARBONYL) PHENYL)-4-CYCLOPROPYL-3-PHENYLISOTHIAZOLE-5-CARBOXAMIDE], the IC50 is reported as ≤ 400 nM.
For `O=C(Nc1cnc(-n2nccn2)c(Cl)c1)c1snc(-c2ncccc2Cl)c1C(F)(F)F` [I-19, N-(5-CHLORO-6-(2H-1,2,3-TRIAZOL-2-YL) PYRIDIN-3-YL)-3-(3-CHLOROPYRIDIN-2-YL)-4-(TRIFLUOROMETHYL) ISOTHIAZOLE-5-CARBOXAMIDE], the IC50 was ≤ 400 nM.

— patent publication US20260124222A1, “ISOTHIAZOLYLCARBOXAMIDE COMPOUNDS AND THEIR USE IN THERAPY” (HOTSPOT THERAPEUTICS, INC., priority 2022, published 2026)
